Source: ChEMBL document CHEMBL1201862, “PubChem BioAssay data set” (2004)
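Interpolation was linear, between the two tested concentrations surrounding the appropriate level; five concentrations were tested over 48 hours in 96-well plates. GI50 marks 50% less growth.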 The source made the active and inactive calls. Cut-off read from the data, not from the text of the source: active = GI50 up to about 1.1 µM and inactive = higher.

Columns and labels:
Assay in all cases: inhibition of tumour cell growth, NCI panel, 48 h
Malme-3M = test system: Malme-3M
CCRF-CEM = test system: CCRF-CEM
NCI/ADR-RES = test system: NCI/ADR-RES
SF-295 = test system: SF-295
MDA-N = test system: MDA-N
NCI-H460 = test system: NCI-H460
OVCAR-8 = test system: OVCAR-8
SK-MEL-2 = test system: SK-MEL-2
SF-268 = test system: SF-268
UACC-257 = test system: UACC-257
OVCAR-4 = test system: OVCAR-4
ACHN = test system: ACHN
MCF7 = test system: MCF7
MDA-MB-231 = test system: MDA-MB-231
SNB-19 = test system: SNB-19
UO-31 = test system: UO-31
Hs-578T = test system: Hs-578T
BT-549 = test system: BT-549
OVCAR-3 = test system: OVCAR-3
HCT-116 = test system: HCT-116
SK-MEL-5 = test system: SK-MEL-5
COLO 205 = test system: COLO 205
U-251 = test system: U-251
SN12C = test system: SN12C
RPMI-8226 = test system: RPMI-8226
UACC-62 = test system: UACC-62
KM12 = test system: KM12
RXF 393 = test system: RXF 393
786-0 = test system: 786-0
TK-10 = test system: TK-10
IGROV-1 = test system: IGROV-1
HCC 2998 = test system: HCC 2998
EKVX = test system: EKVX
HCT-15 = test system: HCT-15
MOLT-4 = test system: MOLT-4
NCI-H522 = test system: NCI-H522
NCI-H226 = test system: NCI-H226
SK-MEL-28 = test system: SK-MEL-28
DU-145 = test system: DU-145
NCI-H23 = test system: NCI-H23
HL-60 = test system: HL-60
SW-620 = test system: SW-620
A549 = test system: A549
HOP-62 = test system: HOP-62
LOX IMVI = test system: LOX IMVI
M14 = test system: M14
HT-29 = test system: HT-29
OVCAR-5 = test system: OVCAR-5
MDA-MB-435 = test system: MDA-MB-435
SK-OV-3 = test system: SK-OV-3
SF-539 = test system: SF-539
T47D = test system: T47D
PC-3 = test system: PC-3
K562 = test system: K562
SNB-75 = test system: SNB-75
SR = test system: SR
A498 = test system: A498
CAKI-1 = test system: CAKI-1

**Q.** Which GI50 (Malme-3M) does the source give for `CC1C(=O)C23OC[C@@]1(C)C1(O)CC[C@@H](C)[C@]21CC3=O` (stereo not given in full) here?
**A.** > 100 µM (inactive)

**Q.** What about the GI50 (CCRF-CEM) of the same molecule?
**A.** > 100 µM (inactive)

**Q.** And the GI50 (NCI/ADR-RES)?
**A.** > 100 µM (inactive)

**Q.** What about the GI50 (SF-295) of the same molecule?
**A.** > 100 µM (inactive)

**Q.** And the GI50 (MDA-N)?
**A.** > 100 µM (inactive)

**Q.** What about the GI50 (NCI-H460) of the same molecule?
**A.** > 100 µM (inactive)

**Q.** And the GI50 (OVCAR-8)?
**A.** > 100 µM (inactive)

**Q.** And the GI50 (SK-MEL-2)?
**A.** > 100 µM (inactive)

**Q.** What about the GI50 (SF-268) of the same molecule?
**A.** > 100 µM (inactive)

**Q.** And the GI50 (UACC-257)?
**A.** > 100 µM (inactive)

**Q.** And the GI50 (OVCAR-4)?
**A.** > 100 µM (inactive)

**Q.** What about the GI50 (ACHN) of the same molecule?
**A.** > 100 µM (inactive)

**Q.** And the GI50 (MCF7)?
**A.** > 100 µM (inactive)

**Q.** And the GI50 (MDA-MB-231)?
**A.** > 100 µM (inactive)

**Q.** And the GI50 (SNB-19)?
**A.** > 100 µM (inactive)

**Q.** What about the GI50 (UO-31) of the same molecule?
**A.** > 100 µM (inactive)

**Q.** What about the GI50 (Hs-578T) of the same molecule?
**A.** > 100 µM (inactive)

**Q.** What about the GI50 (BT-549) of the same molecule?
**A.** > 100 µM (inactive)

**Q.** What about the GI50 (OVCAR-3) of the same molecule?
**A.** > 100 µM (inactive)

**Q.** And the GI50 (HCT-116)?
**A.** > 100 µM (inactive)

**Q.** And the GI50 (SK-MEL-5)?
**A.** > 100 µM (inactive)

**Q.** And the GI50 (COLO 205)?
**A.** > 100 µM (inactive)

**Q.** And the GI50 (U-251)?
**A.** > 100 µM (inactive)

**Q.** What about the GI50 (SN12C) of the same molecule?
**A.** > 100 µM (inactive)

**Q.** And the GI50 (RPMI-8226)?
**A.** > 100 µM (inactive)

**Q.** And the GI50 (UACC-62)?
**A.** > 100 µM (inactive)

**Q.** What about the GI50 (KM12) of the same molecule?
**A.** > 100 µM (inactive)

**Q.** What about the GI50 (RXF 393) of the same molecule?
**A.** > 100 µM (inactive)

**Q.** What about the GI50 (786-0) of the same molecule?
**A.** > 100 µM (inactive)

**Q.** And the GI50 (TK-10)?
**A.** > 100 µM (inactive)

**Q.** What about the GI50 (IGROV-1) of the same molecule?
**A.** > 100 µM (inactive)

**Q.** What about the GI50 (HCC 2998) of the same molecule?
**A.** > 100 µM (inactive)

**Q.** And the GI50 (EKVX)?
**A.** > 100 µM (inactive)

**Q.** And the GI50 (HCT-15)?
**A.** > 100 µM

**Q.** What about the GI50 (MOLT-4) of the same molecule?
**A.** > 100 µM (inactive)

**Q.** What about the GI50 (NCI-H522) of the same molecule?
**A.** > 100 µM (inactive)

**Q.** And the GI50 (NCI-H226)?
**A.** > 100 µM (inactive)

**Q.** What about the GI50 (SK-MEL-28) of the same molecule?
**A.** > 100 µM (inactive)

**Q.** What about the GI50 (DU-145) of the same molecule?
**A.** > 100 µM (inactive)

**Q.** And the GI50 (NCI-H23)?
**A.** > 100 µM (inactive)

**Q.** And the GI50 (HL-60)?
**A.** > 100 µM (inactive)

**Q.** What about the GI50 (SW-620) of the same molecule?
**A.** > 100 µM (inactive)

**Q.** And the GI50 (A549)?
**A.** > 100 µM (inactive)

**Q.** What about the GI50 (HOP-62) of the same molecule?
**A.** > 100 µM (inactive)

**Q.** What about the GI50 (LOX IMVI) of the same molecule?
**A.** > 100 µM (inactive)

**Q.** And the GI50 (M14)?
**A.** > 100 µM (inactive)

**Q.** And the GI50 (HT-29)?
**A.** > 100 µM (inactive)

**Q.** And the GI50 (OVCAR-5)?
**A.** > 100 µM (inactive)

**Q.** What about the GI50 (MDA-MB-435) of the same molecule?
**A.** > 100 µM (inactive)

**Q.** What about the GI50 (SK-OV-3) of the same molecule?
**A.** > 100 µM (inactive)

**Q.** And the GI50 (SF-539)?
**A.** > 100 µM (inactive)

**Q.** What about the GI50 (T47D) of the same molecule?
**A.** > 100 µM (inactive)

**Q.** And the GI50 (PC-3)?
**A.** > 100 µM (inactive)

**Q.** What about the GI50 (K562) of the same molecule?
**A.** > 100 µM (inactive)

**Q.** What about the GI50 (SNB-75) of the same molecule?
**A.** > 100 µM (inactive)

**Q.** What about the GI50 (SR) of the same molecule?
**A.** > 100 µM (inactive)

**Q.** How did the GI50 (Malme-3M) turn out when `Cc1nc2ccc(/N=N/N(C)C)cc2[nH]1` was run?
**A.** > 100 µM (inactive)

**Q.** And the GI50 (CCRF-CEM)?
**A.** 98.9 µM (inactive)

**Q.** What about the GI50 (NCI/ADR-RES) of the same molecule?
**A.** > 100 µM (inactive)

**Q.** And the GI50 (SF-295)?
**A.** > 100 µM (inactive)

**Q.** And the GI50 (MDA-N)?
**A.** > 100 µM (inactive)

**Q.** And the GI50 (NCI-H460)?
**A.** > 100 µM (inactive)

**Q.** And the GI50 (OVCAR-8)?
**A.** > 100 µM (inactive)

**Q.** What about the GI50 (SK-MEL-2) of the same molecule?
**A.** > 100 µM (inactive)

**Q.** And the GI50 (SF-268)?
**A.** > 100 µM (inactive)

**Q.** And the GI50 (UACC-257)?
**A.** > 100 µM (inactive)

**Q.** What about the GI50 (OVCAR-4) of the same molecule?
**A.** > 100 µM (inactive)

**Q.** What about the GI50 (ACHN) of the same molecule?
**A.** > 100 µM (inactive)

**Q.** And the GI50 (MCF7)?
**A.** > 100 µM (inactive)

**Q.** What about the GI50 (MDA-MB-231) of the same molecule?
**A.** > 100 µM (inactive)

**Q.** What about the GI50 (SNB-19) of the same molecule?
**A.** > 100 µM (inactive)

**Q.** And the GI50 (UO-31)?
**A.** > 100 µM (inactive)

**Q.** What about the GI50 (Hs-578T) of the same molecule?
**A.** > 100 µM (inactive)

**Q.** And the GI50 (BT-549)?
**A.** 86.5 µM (inactive)

**Q.** And the GI50 (OVCAR-3)?
**A.** > 100 µM (inactive)

**Q.** And the GI50 (HCT-116)?
**A.** > 100 µM (inactive)

**Q.** And the GI50 (SK-MEL-5)?
**A.** > 100 µM (inactive)

**Q.** And the GI50 (COLO 205)?
**A.** > 100 µM (inactive)

**Q.** And the GI50 (U-251)?
**A.** > 100 µM (inactive)

**Q.** And the GI50 (SN12C)?
**A.** > 100 µM (inactive)

**Q.** And the GI50 (RPMI-8226)?
**A.** > 100 µM (inactive)

**Q.** And the GI50 (UACC-62)?
**A.** > 100 µM (inactive)

**Q.** And the GI50 (KM12)?
**A.** > 100 µM (inactive)

**Q.** And the GI50 (RXF 393)?
**A.** > 100 µM (inactive)

**Q.** And the GI50 (786-0)?
**A.** > 100 µM (inactive)

**Q.** What about the GI50 (TK-10) of the same molecule?
**A.** > 100 µM (inactive)

**Q.** What about the GI50 (IGROV-1) of the same molecule?
**A.** > 100 µM (inactive)

**Q.** What about the GI50 (HCC 2998) of the same molecule?
**A.** > 100 µM (inactive)

**Q.** And the GI50 (A498)?
**A.** > 100 µM (inactive)

**Q.** What about the GI50 (EKVX) of the same molecule?
**A.** > 100 µM (inactive)

**Q.** And the GI50 (HCT-15)?
**A.** > 100 µM

**Q.** What about the GI50 (MOLT-4) of the same molecule?
**A.** > 100 µM (inactive)

**Q.** What about the GI50 (NCI-H522) of the same molecule?
**A.** > 100 µM (inactive)

**Q.** And the GI50 (NCI-H226)?
**A.** > 100 µM (inactive)

**Q.** And the GI50 (SK-MEL-28)?
**A.** > 100 µM (inactive)

**Q.** And the GI50 (DU-145)?
**A.** > 100 µM (inactive)

**Q.** What about the GI50 (SW-620) of the same molecule?
**A.** > 100 µM (inactive)

**Q.** And the GI50 (A549)?
**A.** > 100 µM (inactive)

**Q.** And the GI50 (HOP-62)?
**A.** > 100 µM (inactive)

**Q.** What about the GI50 (LOX IMVI) of the same molecule?
**A.** > 100 µM (inactive)

**Q.** And the GI50 (M14)?
**A.** > 100 µM (inactive)

**Q.** What about the GI50 (HT-29) of the same molecule?
**A.** > 100 µM (inactive)

**Q.** What about the GI50 (CAKI-1) of the same molecule?
**A.** > 100 µM (inactive)

**Q.** What about the GI50 (OVCAR-5) of the same molecule?
**A.** > 100 µM (inactive)

**Q.** What about the GI50 (MDA-MB-435) of the same molecule?
**A.** > 100 µM (inactive)

**Q.** And the GI50 (SK-OV-3)?
**A.** > 100 µM (inactive)

**Q.** What about the GI50 (T47D) of the same molecule?
**A.** > 100 µM (inactive)

**Q.** And the GI50 (PC-3)?
**A.** > 100 µM (inactive)

**Q.** What about the GI50 (SNB-75) of the same molecule?
**A.** > 100 µM (inactive)

**Q.** And the GI50 (SR)?
**A.** > 100 µM (inactive)
